Measurements as given in patent US7041701B2, “Triterpenoid derivatives” (Univerzita Palackeho V Olomouci, priority 2000, dated 2006).
Where two headings read alike, the source gives them in different places.

Key:
[1] = test system: B16F mouse melanoma, metastatic; assay: MTT cytotoxicity assay, B16F; format: cell-based; conditions: Mus musculus, 72 hours, read-out: TCS50
Excerpt: (§1) One of the parameters used as the basis for colorimetric assays is the metabolic activity of viable cells. For example, a microtiter assay which uses the tetrazolium salt MTT is now widely used to quantitate cell proliferation and cytotoxicity [Hajdúch M, Mihál V, Minarík J, Fáber E, Safárová M, Weigl E, Antálek P.: Cytotechnology, 1996, 19, 243–245]. For instance, this assay is used in drug screening programs and in chemosensitivity testing. Because tetrazolium salts are cleaved only by metabolically active cells, these assays exclusively detect viable cells. In the case of the MTT assay, yellow soluble tetrazolium salt is reduced to a coloured water-insoluble formazan salt. After it is solubilized, the formazan formed can easily and rapidly be quantified in a conventional ELISA plate reader at 570 nm (maximum absorbancy). The quantity of reduced formazan corresponds to the number of vital cells in the culture. […]
(§2) The cell suspensions that were prepared and diluted according to the particular cell type and the expected target cell density (2,500–30,000 cells per well based on cell growth characteristics) were added by pipette (80 μl) into 96/well microtiter plates. […] Usually, test compounds were evaluated at six 4-fold dilutions. […] The tumour cell survival (TCS) was calculated using the following equitation: TCS=(ODdrug exposed well/mean ODcontrol wells)×100%. […]

[2] = test system: CEM human T-lymphoblastic leukemia; assay: MTT cytotoxicity screening assay, CEM; format: cell-based
Excerpt: One of the parameters used as the basis for colorimetric assays is the metabolic activity of viable cells. For example, a microtiter assay which uses the tetrazolium salt MTT is now widely used to quantitate cell proliferation and cytotoxicity [Hajdúch M, Mihál V, Minarík J, Fáber E, Safárová M, Weigl E, Antálek P.: Cytotechnology, 1996, 19, 243–245]. For instance, this assay is used in drug screening programs and in chemosensitivity testing. Because tetrazolium salts are cleaved only by metabolically active cells, these assays exclusively detect viable cells. In the case of the MTT assay, yellow soluble tetrazolium salt is reduced to a coloured water-insoluble formazan salt. After it is solubilized, the formazan formed can easily and rapidly be quantified in a conventional ELISA plate reader at 570 nm (maximum absorbancy). The quantity of reduced formazan corresponds to the number of vital cells in the culture.
Human T-lymphoblastic leukaemia cell line CEM was used for routine screening of these compounds. […] The cells were maintained in Nunc/Corning 80 cm^2 plastic tissue culture flasks and cultured in cell culture medium (DMEM with 5 g/l glucose, 2 mM glutamine, 100 U/ml penicillin, 100 μg/ml streptomycin, 10% foetal calf serum and sodium bicarbonate). Individual compounds were dissolved in 10% diiethylsulfoxide/saline, pH 8.0.
The cell suspensions that were prepared and diluted according to the particular cell type and the expected target cell density (2,500–30,000 cells per well based on cell growth characteristics) were added by pipette (80 μl) into 96/well microtiter plates. Inoculates were allowed a pre-incubation period of 24 hours at 37° C. and 5% CO2 for stabilisation. Four-fold dilutions of the intended test concentration were added at time zero in 20 μl aliquots to the microtiter plate wells. Usually, test compounds were evaluated at six 4-fold dilutions. In routine testing, the highest well concentration was 250 μM, but it may differ, depending on the agent. All drug concentrations were examined in duplicate. Incubations of cells with the test compounds lasted for 72 hours at 37° C., in 5% CO2 atmosphere and 100% humidity. At the end of the incubation period, the cells were assayed by using the MTT assay. […] After this incubation period, formazan was solubilized by the addition of 100 μl/well of 10% SDS in water (pH=5.5) followed by further incubation at 37° C. overnight The optical density (OD) was measured at 540 nm with the Labsystem iEMS Reader MF(UK). The tumour cell survival (TCS) was calculated using the following equitation: TCS=(ODdrug exposed well/mean ODcontrol wells)×100%. The TCS50 value, the drug concentration lethal to 50% of the tumour cells, was calculated from the obtained dose response curves. […]

[3] = test system: B16 mouse melanoma; assay: MTT cytotoxicity assay, B16; format: cell-based; conditions: Mus musculus, 72 hours, read-out: TCS50
Excerpt: as §1, §2

[4] = test system: K562-CdA human promyelocytic leukemia, cladrubin resistant; assay: MTT cytotoxicity assay, K562-CdA; format: cell-based; conditions: Homo sapiens, 72 hours, read-out: TCS50
Excerpt: as §1, §2

[5] = test system: U2OS human osteosarcoma, p53+/−, Rb+/−; assay: MTT cytotoxicity assay, U2OS; format: cell-based; conditions: Homo sapiens, 72 hours, read-out: TCS50
Excerpt: as §1, §2

[6] = test system: K562-GEM human promyelocytic leukemia, gemcitabin resistant; assay: MTT cytotoxicity assay, K562-GEM; format: cell-based; conditions: Homo sapiens, 72 hours, read-out: TCS50
Excerpt: as §1, §2

[7] = test system: SW620 human colon cancer, metastasis; assay: MTT cytotoxicity assay, SW620; format: cell-based; conditions: Homo sapiens, SW-620, 72 hours, read-out: TCS50
Excerpt: as §1, §2

[8] = test system: HT-29 human colon cancer; assay: MTT cytotoxicity assay, HT-29; format: cell-based; conditions: Homo sapiens, 72 hours, read-out: TCS50
Excerpt: as §1, §2

[9] = test system: K562 human promyelocytic leukemia; assay: MTT cytotoxicity assay, K562; format: cell-based; conditions: Homo sapiens, 72 hours, read-out: TCS50
Excerpt: as §1, §2

[10] = test system: CEM-VCR 3/D5 human T-lymphoblastic leukemia, vincristin resistant; assay: MTT cytotoxicity assay, CEM-VCR 3/D5; format: cell-based; conditions: Homo sapiens, 72 hours, read-out: TCS50
Excerpt: as §1, §2

[11] = test system: CEM-DNR bulk human T-lymphoblastic leukemia, daunorubicin resistant; assay: MTT cytotoxicity assay, CEM-DNR bulk; format: cell-based; conditions: Homo sapiens, 72 hours, read-out: TCS50
Excerpt: as §1, §2

[12] = test system: HepG2 human hepatocellular carcinoma; assay: MTT cytotoxicity assay, HepG2; format: cell-based; conditions: Homo sapiens, 72 hours, read-out: TCS50
Excerpt: as §1, §2

[13] = test system: BT549 human breast cancer, p53mut/mut; assay: MTT cytotoxicity assay, BT549; format: cell-based; conditions: Homo sapiens, BT-549, 72 hours, read-out: TCS50
Excerpt: as §1, §2

[14] = test system: human normal lymphocytes; assay: MTT cytotoxicity assay, normal lymphocytes; format: cell-based; conditions: Lymphocyte, 72 hours, read-out: TCS50
Excerpt: as §1, §2

[15] = test system: CEM-DNR 1/C2 human T-lymphoblastic leukemia, daunorubicin resistant; assay: MTT cytotoxicity assay, CEM-DNR 1/C2; format: cell-based; conditions: Homo sapiens, 72 hours, read-out: TCS50
Excerpt: as §1, §2

[16] = test system: K562-FLUD human promyelocytic leukemia, fludarabin resistant; assay: MTT cytotoxicity assay, K562-FLUD; format: cell-based; conditions: Homo sapiens, 72 hours, read-out: TCS50
Excerpt: as §1, §2

[17] = test system: CEM-VCR bulk human T-lymphoblastic leukemia, vincristin resistant; assay: MTT cytotoxicity assay, CEM-VCR bulk; format: cell-based; conditions: Homo sapiens, 72 hours, read-out: TCS50
Excerpt: as §1, §2

[18] = test system: U87MG human glioblastoma; assay: MTT cytotoxicity assay, U87MG; format: cell-based; conditions: Homo sapiens, U-87 MG, 72 hours, read-out: TCS50
Excerpt: as §1, §2

[19] = test system: MEL-3 human melanoma; assay: MTT cytotoxicity assay, MEL-3; format: cell-based; conditions: Homo sapiens, 72 hours, read-out: TCS50
Excerpt: as §1, §2

[20] = test system: Saos2 human, p53−/−, Rb−/−; assay: MTT cytotoxicity assay, Saos2; format: cell-based; conditions: Homo sapiens, SAOS-2, 72 hours, read-out: TCS50
Excerpt: as §1, §2

[21] = test system: NIH3T3 mouse immortalised fibroblasts; assay: MTT cytotoxicity assay, NIH3T3; format: cell-based; conditions: Mus musculus, 72 hours, read-out: TCS50
Excerpt: as §1, §2

[22] = test system: K562-ARA-C human promyelocytic leukemia, cytarabin resistant; assay: MTT cytotoxicity assay, K562-ARA-C; format: cell-based; conditions: Homo sapiens, 72 hours, read-out: TCS50
Excerpt: as §1, §2

[23] = test system: CEM-VCR 1/F3 human T-lymphoblastic leukemia, vincristin resistant; assay: MTT cytotoxicity assay, CEM-VCR 1/F3; format: cell-based; conditions: Homo sapiens, 72 hours, read-out: TCS50
Excerpt: as §1, §2

[24] = test system: Caco-2 human colon cancer; assay: MTT cytotoxicity assay, Caco-2; format: cell-based; conditions: Homo sapiens, 72 hours, read-out: TCS50
Excerpt: as §1, §2

[25] = test system: H3 histone (Lys9); assay: Histone acetylation, Western blot in CEM cells; format: cell-based, human
Experimental: CEM cells were cultured in Dulbeco's modified essential medium with 4.5 g dextrose/l, 10% of foetal calf serum, 2 mM glutamine, 100 U/ml penicillin and 100 μg/ml streptomycin with/without the indicated concentrations of HDAC inhibitor TSA or I.3. At selected time points, cells were harvested, washed in ice cold Hank's balanced salt solution and solubilized on ice using SDS-PAGE sample buffer containing protease and phosphatase inhibitors (10 μg/ml of leupeptin, 10 μg/ml of aprotinin, 10 μg/ml of soybean trypsin inhibitor, 100 μmol of benzamide, 1 mM of sodium vanadate, 1 mM of NaF, 1 mM of phenylphosphate) and boiled immediately.
Total cellular proteins (100 μg/well) were separated on SDS-PAGE electrophoresis, blotted on polyvinyldifluoride membranes and acetylated histone was detected using a anti-acetyl(Lys9)-histone H3 rabbit polyclonal antibody (Cell Signalling Technology, Beverly, Mass.; Cat# 9671L) and visualized by chemilumniuscence (ECL-Western Blotting System, Amersham). Details of the Western blot technique are described in Ausubel, F. M., Brent, R, Kingston, R. E., Moore, D. D., Seidman, J. G., Smith, J. A., Struhl, K. (Eds): Short Protocols in Molecular. Biology, 2nd edition, John Wiley & Sons, New York, Chichester, Brisbane, Toronto, Singapore, 1992, page 10–33–10–35.

[26] = test system: human SK-N-AS neuroblastoma; assay: In vivo activity in xenotransplanted human neuroblastoma; design: species or system CD-1/Ctrl-1 nu/nu nude female mice; conditions: cisplatin 4 mg/kg subcutaneously 1×D1; SK-N-AS in nude mice (FIG. 2)
Experimental: Human neuroblastoma SK-N-AS cell line was obtained from ATTC. The line was cultured in Dulbeco's modified essential medium with 4.5 g dextrose/l, 10% of foetal calf serum, 2 mM glutamine, 100 U/ml penicillin and […] streptomycin. For transplantation purposes, only the cells in log phase were used.
CD-1/Ctrl-1 nu/nu nude female mice, 8 weeks old, 18–22 g weight were used in this study (IffaCredo, France). Animals were inoculated with 5.10^6 tumour cells subcutaneously into right inquinal region. Following transplantation, tumor growth was measured in both the control/vehicle and the treated groups using calipers. Tumor volume (TV) was calculated as follows: TV=(a^2×b)/2, where a is width and b is length The statistical significance was evaluated using a […].
Cisplatin (Platidiam 10 inj, sicc., Lachema, Czech Republic) was used as a control drug in this experiment. It was diluted in apyrogenic water and applied to animals in a final volume of 0.18 ml subcutaneously at day 1.
I.3 was synthesised as described above. It was suspended at 10 mg/ml in 5% dextrose and pH was adjusted to 8.0 with sodium hydroxide. vehicle: 5% dextrose with pH adjusted to 8.0 with sodium hydroxide. […]

C=C(C)[C@@H]1CC[C@]2(C(=O)O)CC[C@]3(C)[C@H](CC[C@@H]4[C@@]5(C)CC[C@H](O)C(C)(C)[C@@H]5CC[C@]43C)[C@@H]12 [Betulinic acid, betulinic acid, reference compound]
IC50 [1]: 4.6 µM | IC50 ([2]; Homo sapiens, CEM, MTT assay, 72 hours, read-out: TCS50): 250 µM | IC50 [3]: 36 µM | IC50 [4]: 250 µM | IC50 [5]: 250 µM | IC50 [6]: 101 µM | IC50 [7]: 250 µM | IC50 [8]: 250 µM | IC50 [9]: 250 µM | IC50 [10]: 24 µM | IC50 [11]: 250 µM | IC50 [12]: 3.6 µM | IC50 [13]: 250 µM | IC50 [14]: 250 µM | IC50 [15]: 250 µM | IC50 [16]: 250 µM | IC50 [17]: 69 µM | IC50 [18]: 250 µM | IC50 [19]: 2.7 µM | IC50 [20]: 250 µM | IC50 [21]: 250 µM | IC50 [22]: 250 µM | IC50 [23]: 19 µM | IC50 [24]: 20 µM

CC(/C=C/C(=O)NO)=C\[C@@H](C)C(=O)c1ccc(N(C)C)cc1 [TSA, trichostatin A, reference compound]
IC50 ([2]; CEM cells, as stated in the histone acetylation study, read-out: IC50): 0.24 µM | increase of histone acetylation ([25]; 0.24 μM (IC50)): no significant ability to increase histone acetylation | acetylation of H3 histone in Lys9 position ([25]; Western blot (FIG. 5)): rapidly acetylated

N.N.[Cl][Pt][Cl] [cisplatin, Cisplatin, reference compound]
tumor growth (tumor volume) [26]: no significant activity
